Source: US11530233B2, “Beta-nicotinate ester nucleotides and processes for preparing same” (Cornell University, priority 2017, dated 2022)

Columns and labels:
HEK-293 cells = test: NAD+ concentration in HEK-293 cells after treatment with nicotinic acid ester mononucleotides (NAD+ cycling assay); type: cell-based, human; conditions: HEK293, 24 hr incubation
Procedure: L. et al., Arch. Biochem. Biophys., 175: 627-634 (1976)). The cells were washed with PBS, counted by haemocytometry and pelleted. The cells were then treated with 7% perchloric acid, and then neutralized with 1 M NaOH and 500 mM potassium phosphate pH 8.5. NAD^+ contents were then measured on a plate reader using diaphorase and lactate dehydrogenase using Resazurin as a dye that is reduced to rezarufin (emission 560 nm). NAD^+ levels were quantitated using a standard curve using known NAD^+ concentrations. NAD^+ concentrations are determined to nmol NAD^+/10^6 cells. All values in Table 1 are listed as compared to control.

HEK293 cells = test: Intracellular NAD+ levels in HEK293 cells after 8 h incubation with NaMN or NR; type: cell-based, human; conditions: 1 mM, HEK293, FIG. 4
Procedure: (§1) The ability of nicotinic acid mononucleotide, NaMN, to serve as an NAD^+ enhancing agent in mammalian cell lines, Neuro2a and HEK293 cells was examined after an 8 h incubation. NaMN was added to cell growth media at a concentration of 1 mM. All cell treatments were done in duplicate. Nicotinamide riboside (NR) at 1 mM concentration was performed as a positive control. Untreated cells served as negative controls. Cells were treated for the allotted time then harvested by trysin detachment and pelleting. Cells were counted by haemocytometer and then lysed by treatment with 100 μL perchloric acid (7%). Lysates were then neutralized by treatment with NaOH and K2PO4 solutions. NAD^+ concentrations were determined by a daphorase-based assay. NAD^+ standards were also run to establish a standard curve. The results are graphically depicted in FIG. 4.

Neuro2a cells = test: Intracellular NAD+ levels in Neuro2a cells after 8 h incubation with NaMN or NR; type: cell-based; conditions: 1 mM, FIG. 4
Procedure: as §1

`CCCCCCCOC(=O)c1ccc[n+]([C@@H]2O[C@H](COP(=O)([O-])O)[C@H](O)[C@@H]2O)c1` [compound 5e, ((2R,3R,4S,5R)-3,4-dihydroxy-5-(3-(heptyloxycarbonyl)pyridin-1-ium-1-yl)tetrahydrofuran-2-yl)methyl hydrogen phosphate] was tested, and the “NAD^+ Level (% versus control)” value (HEK-293 cells; 25 μM) was 152 ± 19 % versus control, the “NAD^+ Level (% versus control)” value (HEK-293 cells; 100 μM) was 150 ± 11 % versus control and the “NAD^+ Level (% versus control)” value (HEK-293 cells; 500 μM) was 123 ± 21 % versus control.
With `CCCCCOC(=O)c1ccc[n+]([C@@H]2O[C@H](COP(=O)([O-])O)[C@H](O)[C@@H]2O)c1` [compound 5c, ((2R,3R,4S,5R)-3,4-dihydroxy-5-(3-(pentyloxycarbonyl)pyridin-1-ium-1-yl)tetrahydrofuran-2-yl)methyl hydrogen phosphate] the “NAD^+ Level (% versus control)” value (HEK-293 cells; 25 μM) was 80 ± 21 % versus control, the “NAD^+ Level (% versus control)” value (HEK-293 cells; 100 μM) was 105 ± 26 % versus control and the “NAD^+ Level (% versus control)” value (HEK-293 cells; 200 μM) was 171 ± 18 % versus control. For the same compound, the “NAD^+ Level (% versus control)” value (HEK-293 cells; 500 μM) was 124 ± 27 % versus control.
In the case of `CCCCCCOC(=O)c1ccc[n+]([C@@H]2O[C@H](COP(=O)([O-])O)[C@H](O)[C@@H]2O)c1` [compound 5d, ((2R,3R,4S,5R)-3,4-dihydroxy-5-(3-(hexyloxycarbonyl)pyridin-1-ium-1-yl)tetrahydrofuran-2-yl)methyl hydrogen phosphate], the “NAD^+ Level (% versus control)” value (HEK-293 cells; 25 μM) is reported as 136 ± 26 % versus control, the “NAD^+ Level (% versus control)” value (HEK-293 cells; 100 μM) is reported as 162 ± 15 % versus control and the “NAD^+ Level (% versus control)” value (HEK-293 cells; 500 μM) is reported as 146 ± 48 % versus control.
With `O=C(O)c1ccc[n+]([C@@H]2O[C@H](COP(=O)(O)O)[C@@H](O)[C@H]2O)c1` [NaMN, nicotinic acid mononucleotide] the “intracellular NAD^+ content versus untreated cells” value (HEK293 cells) was “No intracellular increase in NAD^+” and the “intracellular NAD^+ content versus untreated cells” value (Neuro2a cells) was “No intracellular increase in NAD^+”.
With `CCCCOC(=O)c1ccc[n+]([C@@H]2O[C@H](COP(=O)([O-])O)[C@H](O)[C@@H]2O)c1` [compound 5b, ((2R,3R,4S,5R)-3,4-dihydroxy-5-(3-(butoxycarbonyl)pyridin-1-ium-1-yl)tetrahydrofuran-2-yl)methyl hydrogen phosphate] the “NAD^+ Level (% versus control)” value (HEK-293 cells; 25 μM) was 104 ± 29 % versus control, the “NAD^+ Level (% versus control)” value (HEK-293 cells; 100 μM) was 165 ± 31 % versus control and the “NAD^+ Level (% versus control)” value (HEK-293 cells; 500 μM) was 103 ± 32 % versus control.
`NC(=O)c1ccc[n+]([C@@H]2O[C@H](CO)[C@@H](O)[C@H]2O)c1` [NR, Nicotinamide riboside] was tested, and the “intracellular NAD^+ content versus untreated cells” value (HEK293 cells) was “increased NAD^+ contents in cells” and the “intracellular NAD^+ content versus untreated cells” value (Neuro2a cells) was “increased NAD^+ contents in cells”.
With `CCCCCCCCOC(=O)c1ccc[n+]([C@@H]2O[C@H](COP(=O)([O-])O)[C@H](O)[C@@H]2O)c1` [compound 5f, ((2R,3R,4S,5R)-3,4-dihydroxy-5-(3-(octyloxycarbonyl)pyridin-1-ium-1-yl)tetrahydrofuran-2-yl)methyl hydrogen phosphate] the “NAD^+ Level (% versus control)” value (HEK-293 cells; 200 μM) was 90 ± 8.7 % versus control.
